Paper PMC5190074, “BET inhibition as a new strategy for the treatment of gastric cancer” (Oncotarget, 2016)

Assays:
Assay in all cases: biochemical
Design in all cases: thermal shift assay (real-time PCR machine), melting temperature shift of recombinant bromodomains at 2 uM protein
[1] = target: T1, BRD2(1) (Homo sapiens, UniProt P25440)
T1 construct: bromodomain 1
Experimental: (§1) The recombinant bromodomains at 2 μM were mixed with 10 μM inhibitors. The assays and data evaluation for melting temperatures were performed using a Real-Time PCR Mx3005p machine (Stratagene) and the protocols previously described. Experiments profiling the final compound (PNZ5) were performed in quadruplicates. […] Since its discovery in our own labs, similar inhibitors have also been disclosed by researchers at Boehringer Ingelheim [reference: patent, WO 2014/154760 [31]]. The inhibitor contains two possible acetyl-lysine mimetic moieties. In order to obtain molecular insights on the interaction of the developed inhibitor, the crystal structure of the first bromodomain of BRD4 in complex with PNZ5 was solved at 1.85 Å (Figure 2C and Supplementary Table 4, 5FBX.pdb). The inhibitor, coordinating residues and water molecules were well defined by the electron density. The dimethylisoxazole moiety mimicked the acetyl lysine side chain and formed two canonical hydrogen-bond interactions with Asn140 and water mediated hydrogen-bond with Tyr 97 (Figure 2C). The common network of waters within the binding site was also conserved in the BRD4(1)-PNZ5 complex. The compound was further stabilized by lipophilic interactions with residues forming the binding site Leu92, Leu94, Ile146. The [compound left out] substituent was well accommodated next to the WPF shelf, as well as the N1-methyl substituent that formed hydrophobic interactions with Trp81. The carbonyl on the isoindolinone established a water-mediated hydrogen bond with Lys91.

[2] = target: T2, BRD9 (Homo sapiens, UniProt Q9H8M2)
T2 construct: bromodomain
Experimental: as §1

[3] = target: T3, PB1(2) (Homo sapiens, UniProt Q86U86)
T3 construct: gene PBRM1; bromodomain 2
Experimental: as §1

[4] = target: T4, ATAD2B (Homo sapiens, UniProt Q9ULI0)
T4 construct: bromodomain
Experimental: as §1

[5] = target: T5, BRD1 (Homo sapiens, UniProt O95696)
T5 construct: bromodomain
Experimental: as §1

[6] = target: T6, BRPF1B (Homo sapiens, UniProt P55201)
T6 construct: gene BRPF1; isoform B bromodomain
Experimental: as §1

[7] = target: T7, PB1(1) (Homo sapiens, UniProt Q86U86)
T7 construct: gene PBRM1; bromodomain 1
Experimental: as §1

[8] = target: T8, TIF1-bromo (Homo sapiens, UniProt O15164)
T8 construct: gene TRIM24; bromodomain
Experimental: as §1

[9] = target: T9, BRD3(1) (Homo sapiens, UniProt Q15059)
T9 construct: bromodomain 1
Experimental: as §1

[10] = target: T10, SP140L (Homo sapiens, UniProt Q9H930)
T10 construct: bromodomain
Experimental: as §1

[11] = target: T11, BRDT(2) (Homo sapiens, UniProt Q58F21)
T11 construct: bromodomain 2
Experimental: as §1

[12] = target: T12, SMARCA4 (Homo sapiens, UniProt P51532)
T12 construct: bromodomain
Experimental: as §1

[13] = target: T13, CREBBP (Homo sapiens, UniProt Q92793)
T13 construct: bromodomain
Experimental: as §1

[14] = target: T14, BRD3(2) (Homo sapiens, UniProt Q15059)
T14 construct: bromodomain 2
Experimental: as §1

[15] = target: T15, BRD2(2) (Homo sapiens, UniProt P25440)
T15 construct: bromodomain 2
Experimental: as §1

T13 sequence (Q92793 whole entry): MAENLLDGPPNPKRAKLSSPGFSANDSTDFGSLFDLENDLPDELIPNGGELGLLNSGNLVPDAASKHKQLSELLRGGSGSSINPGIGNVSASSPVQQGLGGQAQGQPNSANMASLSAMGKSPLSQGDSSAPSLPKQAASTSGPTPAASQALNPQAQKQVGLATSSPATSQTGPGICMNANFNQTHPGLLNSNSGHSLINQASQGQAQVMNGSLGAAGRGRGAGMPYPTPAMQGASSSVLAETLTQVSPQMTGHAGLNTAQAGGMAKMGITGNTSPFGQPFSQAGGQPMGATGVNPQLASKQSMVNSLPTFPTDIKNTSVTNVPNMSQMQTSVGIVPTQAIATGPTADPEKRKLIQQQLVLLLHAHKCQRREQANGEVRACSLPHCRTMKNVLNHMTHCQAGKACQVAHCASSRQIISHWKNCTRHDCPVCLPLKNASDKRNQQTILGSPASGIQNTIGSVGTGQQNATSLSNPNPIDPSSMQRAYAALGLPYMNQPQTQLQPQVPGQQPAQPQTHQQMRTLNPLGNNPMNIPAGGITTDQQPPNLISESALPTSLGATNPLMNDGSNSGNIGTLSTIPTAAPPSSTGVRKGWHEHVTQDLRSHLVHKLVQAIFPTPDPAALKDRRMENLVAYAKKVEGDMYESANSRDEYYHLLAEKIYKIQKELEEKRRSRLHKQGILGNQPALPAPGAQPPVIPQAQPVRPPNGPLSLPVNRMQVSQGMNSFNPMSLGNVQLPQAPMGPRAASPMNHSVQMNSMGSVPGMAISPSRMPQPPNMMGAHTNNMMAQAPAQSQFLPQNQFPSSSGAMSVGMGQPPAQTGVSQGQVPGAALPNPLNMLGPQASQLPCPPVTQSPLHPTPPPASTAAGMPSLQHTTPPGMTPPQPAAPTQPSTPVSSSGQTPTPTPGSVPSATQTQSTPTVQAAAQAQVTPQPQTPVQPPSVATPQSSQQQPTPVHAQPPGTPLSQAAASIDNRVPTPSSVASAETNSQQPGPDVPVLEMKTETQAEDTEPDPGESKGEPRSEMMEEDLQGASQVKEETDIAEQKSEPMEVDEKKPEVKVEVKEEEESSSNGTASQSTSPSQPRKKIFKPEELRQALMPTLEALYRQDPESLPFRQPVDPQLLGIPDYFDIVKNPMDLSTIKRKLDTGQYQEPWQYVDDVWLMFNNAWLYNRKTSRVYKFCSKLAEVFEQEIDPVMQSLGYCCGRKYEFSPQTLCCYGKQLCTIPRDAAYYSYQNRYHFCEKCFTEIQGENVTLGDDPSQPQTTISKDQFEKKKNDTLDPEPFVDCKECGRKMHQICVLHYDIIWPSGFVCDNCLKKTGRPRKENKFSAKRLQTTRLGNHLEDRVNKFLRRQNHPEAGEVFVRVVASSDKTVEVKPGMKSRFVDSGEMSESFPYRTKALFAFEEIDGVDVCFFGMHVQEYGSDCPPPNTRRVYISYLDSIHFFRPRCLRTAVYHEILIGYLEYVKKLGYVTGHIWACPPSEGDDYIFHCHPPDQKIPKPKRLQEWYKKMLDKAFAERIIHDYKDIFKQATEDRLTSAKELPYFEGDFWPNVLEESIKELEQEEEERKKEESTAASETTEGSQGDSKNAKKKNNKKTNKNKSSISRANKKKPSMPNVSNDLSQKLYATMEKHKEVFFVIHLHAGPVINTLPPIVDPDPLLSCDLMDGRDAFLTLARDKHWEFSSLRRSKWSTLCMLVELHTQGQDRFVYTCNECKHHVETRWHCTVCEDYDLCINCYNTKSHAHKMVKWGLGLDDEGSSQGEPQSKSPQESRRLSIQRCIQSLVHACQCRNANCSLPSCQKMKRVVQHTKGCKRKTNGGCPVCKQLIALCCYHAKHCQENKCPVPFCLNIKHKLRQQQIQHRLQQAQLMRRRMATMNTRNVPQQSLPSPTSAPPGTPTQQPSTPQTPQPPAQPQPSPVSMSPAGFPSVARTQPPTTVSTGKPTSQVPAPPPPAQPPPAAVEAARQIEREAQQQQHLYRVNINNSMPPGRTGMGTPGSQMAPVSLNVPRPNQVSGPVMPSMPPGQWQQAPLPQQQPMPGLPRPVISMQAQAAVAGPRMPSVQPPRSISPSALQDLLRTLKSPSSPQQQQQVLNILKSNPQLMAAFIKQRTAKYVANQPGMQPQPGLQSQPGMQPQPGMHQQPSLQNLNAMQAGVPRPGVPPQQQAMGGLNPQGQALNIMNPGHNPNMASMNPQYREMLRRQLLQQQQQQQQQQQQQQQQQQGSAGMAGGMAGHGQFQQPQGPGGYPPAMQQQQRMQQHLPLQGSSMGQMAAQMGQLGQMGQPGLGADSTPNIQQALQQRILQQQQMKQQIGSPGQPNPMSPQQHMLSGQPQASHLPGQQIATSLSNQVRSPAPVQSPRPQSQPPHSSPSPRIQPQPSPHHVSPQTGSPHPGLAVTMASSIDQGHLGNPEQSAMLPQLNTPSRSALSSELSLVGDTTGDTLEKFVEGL
T10 sequence (Q9H930 whole entry): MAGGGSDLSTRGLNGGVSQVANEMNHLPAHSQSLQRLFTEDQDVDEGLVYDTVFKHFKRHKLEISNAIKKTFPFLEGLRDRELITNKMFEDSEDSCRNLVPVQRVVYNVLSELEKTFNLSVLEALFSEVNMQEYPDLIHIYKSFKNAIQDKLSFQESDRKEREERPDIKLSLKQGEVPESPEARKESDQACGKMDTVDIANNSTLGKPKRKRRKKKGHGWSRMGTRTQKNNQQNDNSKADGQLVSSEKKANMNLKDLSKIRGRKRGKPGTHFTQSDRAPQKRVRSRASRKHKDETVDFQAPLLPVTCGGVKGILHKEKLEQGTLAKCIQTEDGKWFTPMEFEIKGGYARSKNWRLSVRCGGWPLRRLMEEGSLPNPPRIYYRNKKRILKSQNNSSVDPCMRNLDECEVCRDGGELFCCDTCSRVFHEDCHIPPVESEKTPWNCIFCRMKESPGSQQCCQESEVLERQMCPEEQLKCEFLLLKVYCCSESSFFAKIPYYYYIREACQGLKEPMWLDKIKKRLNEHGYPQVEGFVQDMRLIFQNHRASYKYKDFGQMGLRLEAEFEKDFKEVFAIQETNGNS
T8 sequence (O15164 whole entry): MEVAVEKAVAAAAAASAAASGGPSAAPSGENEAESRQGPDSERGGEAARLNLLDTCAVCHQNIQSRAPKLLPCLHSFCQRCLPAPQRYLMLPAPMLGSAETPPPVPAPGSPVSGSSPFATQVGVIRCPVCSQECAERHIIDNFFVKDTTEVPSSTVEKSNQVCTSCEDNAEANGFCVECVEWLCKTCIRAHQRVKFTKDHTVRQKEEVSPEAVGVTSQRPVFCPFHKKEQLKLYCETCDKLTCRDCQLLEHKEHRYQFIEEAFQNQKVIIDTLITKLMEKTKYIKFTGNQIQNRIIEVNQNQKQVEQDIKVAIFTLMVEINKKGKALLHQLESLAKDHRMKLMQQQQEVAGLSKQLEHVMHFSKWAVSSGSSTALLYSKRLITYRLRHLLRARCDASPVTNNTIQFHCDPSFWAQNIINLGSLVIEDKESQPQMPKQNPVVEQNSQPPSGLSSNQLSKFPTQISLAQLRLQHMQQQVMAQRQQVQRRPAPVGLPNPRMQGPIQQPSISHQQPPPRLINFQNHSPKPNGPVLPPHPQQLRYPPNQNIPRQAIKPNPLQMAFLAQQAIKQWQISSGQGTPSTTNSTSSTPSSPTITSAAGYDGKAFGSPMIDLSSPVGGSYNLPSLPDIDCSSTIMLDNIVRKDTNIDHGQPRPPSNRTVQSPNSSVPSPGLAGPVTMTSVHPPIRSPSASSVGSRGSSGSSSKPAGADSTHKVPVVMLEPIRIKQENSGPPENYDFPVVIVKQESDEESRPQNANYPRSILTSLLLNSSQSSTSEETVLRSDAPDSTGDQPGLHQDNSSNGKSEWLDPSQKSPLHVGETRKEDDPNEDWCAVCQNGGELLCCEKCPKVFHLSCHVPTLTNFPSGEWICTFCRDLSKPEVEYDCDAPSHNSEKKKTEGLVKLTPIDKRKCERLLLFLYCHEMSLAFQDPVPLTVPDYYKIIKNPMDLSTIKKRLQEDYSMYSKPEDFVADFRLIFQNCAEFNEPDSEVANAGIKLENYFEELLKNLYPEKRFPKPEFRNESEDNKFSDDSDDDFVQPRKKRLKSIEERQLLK
T5 sequence (O95696 whole entry): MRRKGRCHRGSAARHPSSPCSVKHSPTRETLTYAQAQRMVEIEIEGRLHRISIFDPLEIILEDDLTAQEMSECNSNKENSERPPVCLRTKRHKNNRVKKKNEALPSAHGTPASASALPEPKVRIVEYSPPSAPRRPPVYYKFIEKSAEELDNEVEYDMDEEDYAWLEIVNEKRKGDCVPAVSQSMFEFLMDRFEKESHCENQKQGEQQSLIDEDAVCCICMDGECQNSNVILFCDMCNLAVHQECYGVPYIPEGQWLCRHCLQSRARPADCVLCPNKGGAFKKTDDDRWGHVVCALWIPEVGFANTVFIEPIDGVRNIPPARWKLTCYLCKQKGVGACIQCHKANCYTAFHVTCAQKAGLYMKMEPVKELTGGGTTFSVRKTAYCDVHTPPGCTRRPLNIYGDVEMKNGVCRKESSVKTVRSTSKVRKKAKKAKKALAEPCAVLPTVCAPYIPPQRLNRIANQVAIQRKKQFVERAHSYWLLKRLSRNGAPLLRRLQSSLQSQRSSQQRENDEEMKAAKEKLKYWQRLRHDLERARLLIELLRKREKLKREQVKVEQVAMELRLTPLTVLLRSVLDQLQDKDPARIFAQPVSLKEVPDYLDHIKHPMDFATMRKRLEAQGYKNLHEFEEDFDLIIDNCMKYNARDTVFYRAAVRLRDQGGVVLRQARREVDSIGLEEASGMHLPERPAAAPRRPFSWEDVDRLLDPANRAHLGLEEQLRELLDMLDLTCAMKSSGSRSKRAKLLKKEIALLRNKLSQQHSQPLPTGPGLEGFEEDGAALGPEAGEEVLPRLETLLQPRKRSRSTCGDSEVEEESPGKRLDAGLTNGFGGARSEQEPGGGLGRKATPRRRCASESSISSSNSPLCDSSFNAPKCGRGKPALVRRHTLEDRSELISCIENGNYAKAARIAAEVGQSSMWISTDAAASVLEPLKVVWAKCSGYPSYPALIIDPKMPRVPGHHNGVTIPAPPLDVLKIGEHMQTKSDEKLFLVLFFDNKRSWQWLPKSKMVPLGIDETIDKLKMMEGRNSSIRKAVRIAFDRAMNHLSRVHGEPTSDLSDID

ΔTm at 10 µM [1]: 7.94 °C
ΔTm at 10 µM [2]: 1.85 °C
ΔTm at 10 µM [3]: 0.27 °C
ΔTm at 10 µM [4]: 0.3 °C
ΔTm at 10 µM [5]: 1.03 °C
ΔTm at 10 µM [6]: 0.89 °C
ΔTm at 10 µM [7]: 0.79 °C
ΔTm at 10 µM [8]: 0.86 °C
ΔTm at 10 µM [9]: 9.79 °C
ΔTm at 10 µM [10]: 1.05 °C
ΔTm at 10 µM [11]: 8.81 °C
ΔTm at 10 µM [12]: 0.04 °C
ΔTm at 10 µM [13]: 2.37 °C
ΔTm at 10 µM [14]: 9.54 °C
ΔTm at 10 µM [15]: 8.13 °C
SMILES: Cc1noc(C)c1-c1ccc2c(c1)[C@H](c1ccccc1)N(C)C2=O [PNZ5]
